Data as given in patent US20230151065A1, “MULTI-DISULFIDE-BOND LONG-CHAIN PEPTIDE WITH NEURO[…], PHARMACEUTICAL COMPOSITION AND APPLICATION” (priority 2018, published 2023).
Where no end group is shown, it is not given here.

Tests used:
[1] = tested on: primary cultured SD fetal rat cortical neurons after OGD damage; assay: OGD damage of cortical neurons, observation under light microscope; type: cell-based; conditions: OGD 2 h, 24 h reoxygenation; ABPPk2 medium-dose (40 ng/ml) and high-dose (200 ng/ml) groups vs OGD damage group
Description: (§1) The suspension was filtered with a 400-mesh screen, centrifuged at 1000 rpm for 5 min, and blown to form the single cell suspension. DMEM high glucose complete medium (containing 10% fetal bovine serum) was inoculated in a culture dish or culture plate pre-coated with polylysine (PLL) to culture in 5% CO2 incubator with saturated humidity at 37° C. After the cells were cultured for 4 h to adhere to the wall, the cells were cultured with neuron culture medium (neurobasal+2% B27) for 3 d to observe the growth of neurons. The culture medium containing cytarabine (the final concentration of cytarabine was 2.5 μg/ml) was substituted with half quantity to culture for 3d to inhibit the growth of glial cells and miscellaneous cells to obtain purely cultured primary cortical nerve cells. The purity of the cortical neurons was identified by immunocytochemical staining as more than 90%.
(§2) After the cortical neurons were cultured to the 7th day, the original culture medium was sucked out, and the cells were rinsed twice with sugar-free DMEM basal medium, for 5 min each time. Each OGD damage group was added with DMEM sugar-free culture medium, placed in a Billups-Rothenberg anaerobic culture chamber, filled with 95% N2/5% CO2 to balance for 15 min, and sealed for 2 h to build an OGD model. […]

[2] = tested on: primary cultured SD fetal rat cortical neurons after OGD damage; assay: OGD damage of cortical neurons, Hoechst 33258 staining of apoptotic bodies; type: cell-based; conditions: OGD 2 h, 24 h reoxygenation; ABPPk2 8, 40, 200 ng/ml, dose-dependent; BDNF 10 ng/ml
Description: as §1, §2

[3] = tested on: PI3K/AKT signaling pathway in cortical neurons after OGD damage; assay: OGD damage of cortical neurons with PI3K inhibitor LY-294002, Western blot of p-AKT and Cleaved caspase-3; type: cell-based, SD rat
[4] = tested on: primary fetal rat hippocampal neurons; assay: Growth cones and neurite growth of hippocampal neurons, immunocytochemical staining; type: cell-based; conditions: vs negative control
Description: (1) Primary culture of fetal rat hippocampal neurons: after a rat pregnant for 17 days was anesthetized, a fetal rat was taken out under sterile conditions; the brain of the fetal rat was taken out on ice; the hippocampus was carefully taken out under a dissecting microscope; and the blood vessel membranes were removed. 0.125% trypsin/EDTA was digested at 37° C. for 10 min, and the digestion was stopped by adding the DMEM complete medium containing 10% FBS. Cell debris were removed through centrifugal at 1000 rpm for 5 min; the DMEM complete medium was added to resuspend the cells; the cells were gently blown until a single cell suspension was formed; and the cells were inoculated at an appropriate density on a culture plate (dish) pre-coated with polylysine (PLL) and cultured at 37° C., 5% CO2 incubator. After 4 h, the cells were adhered to the wall; the DMEM complete medium was discarded and replaced with neurobasal medium containing different concentrations of ABPPk2 (the concentrations of ABPPk2 were 4 ng/ml, 20 ng/ml and 100 ng/ml); the neurobasal medium containing 10 ng/ml BDNF was used as the positive control group, and neurobasal was used as the negative control group.
(4) The immunocytochemical staining method was used to observe the effect of ABPPk2 on the growth cones of primary fetal rat hippocampal neuron neurites. Primary hippocampal neurons were cultured according to the steps in (1), and the cells were inoculated on small round slides pre-coated with PLL at a density of 5×10^4, and then placed on a 24-well culture plate for culturing. Grouping and treatment were as described above. After 24 h, double-labeled immunocytofluorescent chemical staining of β-tubulin3 (TRITC) and F-actin (FITC) was conducted; the growth of the neurons was observed under a laser confocal microscope; and the area of the neuron growth cone and the length of filopodia were counted, as shown in FIG. 23.
(5) The immunocytochemical staining method was used to observe the effect of ABPPk2 on the growth of primary fetal rat hippocampal neuron neurites. Primary hippocampal neurons were cultured according to the steps in (1), and the cells were inoculated on small round slides pre-coated with PLL at a density of 5×10^4, and then placed on a 24-well culture plate for culturing. Grouping and treatment were as described above. […] The length of the neurites started from the axon hillock of the cell body to the top of the axon. The number of the neurites from the neuron cell bodies refers to the neurites directly connected with the cell bodies, as shown in FIG. 24.
(6) β-tubulin3 […]; the growth of the neurites was observed under the laser confocal microscope; the number of neurite branches and the proportion of the neurites with different lengths were counted; and the number of neurite branches refers to the number of branches of the neurites in a circle with a neuron cell body as the center and a radius of 100 μm.

[5] = after OGD and LY-294002 treatment, ABPPk2 high-dose group
[6] = after OGD damage, vs OGD group, ABPPk2 at high dose, LY-294002 30 min
[7] = ABPPk2 4, 20, 100 ng/ml, 12 h as printed (24 h in method)

## Cys-Leu-Glu-Ser-Gly-Thr-Ser-Cys-Ile-Pro-Gly-Ala-Gln-His-Asn-Cys-Cys-Ser-Gly-Val-Cys-Val-Pro-Ile-Val-Thr-Ile-Phe-Tyr-Gly-Val-Cys-Tyr (CLESGTSCIPGAQHNCCSGVCVPIVTIFYGVCY; disulfide (positions not given here); not fully specified (bridges); also: three disulfide bonds, pairing not given here) [ABPPk2, 33 amino acid polypeptide isolated from the extract of Achyranthes bidentata Blume, three pairs of disulfide bonds]
[1]
  dead cells under light microscope: the number of dead cells is significantly reduced
[2]
  apoptotic bodies of cortical neuron nuclei: the apoptotic bodies of the cortical neuron nuclei were reduced
[3]; [5]
  expression of Cleaved caspase-3: significantly down-regulated
  expression of p-AKT: significantly up-regulated
[3]; [6]
  expression of Cleaved caspase-3: significantly down-regulated
  expression of p-AKT: significantly up-regulated
[4]; [7]
  area of the neuron growth cone: the area of the growth cone can be significantly increased
  length of filopodia: the length of the filopodia can be increased
[4]; ABPPk2 for 24 h
  length of the neurites: the extension of hippocampal neuronal neurites can be significantly promoted
  number of the neurites from the neuron cell bodies: the number of the neurites from the neuron cell bodies can be significantly increased
[4]; ABPPk2 for 48 h
  number of neurite branches: increased significantly
  proportion of long neurite neurons: significantly higher than that of the negative control group
